Assay type in all cases: in vivo
Assay [1] concerns Zymoseptoria tritici. Description: Leaf blotch of wheat (SEPTTR) disease control on wheat seedlings. Particulars: for pest or weed control at 121.5 g/ha: Low volume application; for pest or weed control at 100 ppm: High volume application.
Assay [2] concerns Puccinia triticina. Description: Wheat brown rust (PUCCRT) disease control on wheat seedlings. Particulars: for pest or weed control at 121.5 g/ha: Low volume application; for pest or weed control at 100 ppm: High volume application. In short, it runs like this: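 Yuma wheat seedlings (first leaf emerged) sprayed to run-off with compound in acetone plus nine volumes water containing 110 ppm Triton X-100, or track-sprayed as EC formulations with 0.1% Trycol 5941. Rust spores inoculated before or after treatment; overnight dark dew, 22 °C, 100% RH, then greenhouse at 24 °C.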

In assay [3] the test system is Phakopsora pachyrhizi. Description: Asian soybean rust (PHAKPA) disease control on soybean seedlings. As to conditions: Phakopsora pachyrhizi, High volume application at 25 ppm. On the procedure:
Example C: Evaluation of Fungicidal Activity: Asian Soybean Rust (Phakopsora pachyrhizi; Bayer Code […]) Technical grades of materials were dissolved in acetone, which were then mixed with nine volumes of water containing 0.011% Tween 20. The fungicide solutions were applied onto soybean seedlings using an automated booth sprayer to run-off. All sprayed plants were allowed to air dry prior to further handling. Soybean plants (variety Williams 82) were grown in soil-less Metro mix, with one plant per pot. Two week old seedlings were used for testing. Plants were inoculated either 3 days prior to or 1 day after fungicide treatments. Plants were incubated for 24 h in a dark dew room at 22° C. and 100% relative humidity then transferred to a growth room at 23° C. for disease to develop. Disease severity was assessed on the sprayed leaves.

Setting [4] is: 24 h, 1 Day Protectant, read-out: SEPTTR disease control rating, 1DP.
[5] abbreviates: 72 h, 3 Day Curative, read-out: SEPTTR disease control rating, 3DC.
[6] abbreviates: 24 h, 1 Day Protectant, read-out: PUCCRT disease control rating, 1DP.
The mark [7] stands for this setting: 72 h, 3 Day Curative, read-out: PUCCRT disease control rating, 3DC.
Where [8] appears, read: 24 h, 1 day protectant, read-out: PHAKPA 1DP (1 Day Protectant) disease control.
[9] abbreviates: 72 h, 3 day curative, read-out: PHAKPA 3DC (3 Day Curative) disease control.

Molecules are shown by their SMILES. Read-outs that look alike come from different tables or passages of the source.

These results are taken from patent US20200399222A1, “PICOLINAMIDES AS FUNGICIDES” (Dow AgroSciences LLC, priority 2018, published 2020).

As for `COc1ccnc(C(=O)N[C@@H](C)C(=O)O[C@H](C)[C@H](C)c2c(C)cccc2C)c1OC(C)=O` [Example 253], the pest or weed control at 121.5 g/ha in assay [1] (setting [4]) was less than 80%; in assay [1] (setting [5]) it was less than 80%; in assay [2] (setting [6]) it was more than 80%; in assay [2] (setting [7]), less than 80%. The pest or weed control at 25 ppm in assay [3] (setting [8]) and in assay [3] (setting [9]) was more than 80% each time.
Consider `COc1ccnc(C(=O)N[C@@H](C)C(=O)O[C@H](C)[C@H](C)C2CCCC2)c1OC(C)=O` [Example 252], for which the pest or weed control at 121.5 g/ha in assay [1] (setting [4]) was less than 0%; in assay [1] (setting [5]), less than 80%; in assay [2] (setting [6]) it was less than 0%; in assay [2] (setting [7]), less than 80%. The pest or weed control at 25 ppm in assay [3] (setting [8]) and in assay [3] (setting [9]) was less than 80% in each case.
For `COc1ccnc(C(=O)N[C@@H](C)C(=O)O[C@H](C)[C@H](C)c2ccccc2C)c1OC(=O)C(C)C` [Example 265], the pest or weed control at 121.5 g/ha in assay [1] (setting [4]), in assay [1] (setting [5]), in assay [2] (setting [6]) and in assay [2] (setting [7]) was less than 80% in each case. Also, the pest or weed control at 25 ppm in assay [3] (setting [8]) and in assay [3] (setting [9]) was more than 80% in each case.
In the case of `COc1ccnc(C(=O)N[C@@H](C)C(=O)O[C@@H](C)[C@@H](C)c2c(C)cc(F)cc2C)c1OC(C)=O` [Example 249], the pest or weed control at 121.5 g/ha in assay [1] (setting [4]), in assay [1] (setting [5]), in assay [2] (setting [6]) and in assay [2] (setting [7]) was more than 80% each time. The pest or weed control at 25 ppm in assay [3] (setting [8]) and in assay [3] (setting [9]) was more than 80% throughout.
For the compound `COc1ccnc(C(=O)N[C@@H](C)C(=O)O[C@H](C)[C@H](C)C2CCCC2)c1OC(=O)C(C)C` [Example 241], the pest or weed control at 121.5 g/ha is less than 80% in assay [1] (setting [4]), less than 0% in assay [1] (setting [5]), less than 0% in assay [2] (setting [6]) and less than 0% in assay [2] (setting [7]). Moreover, the pest or weed control at 25 ppm in assay [3] (setting [8]) and in assay [3] (setting [9]) was less than 0% in each case.
On to `COc1ccnc2c(=O)n([C@@H](C)C(=O)O[C@@H](C)[C@@H](C)c3ccccc3)c(=O)oc12` [Example 261], for which the pest or weed control at 121.5 g/ha in assay [1] (setting [4]) was less than 80%; in assay [1] (setting [5]), less than 0%; in assay [2] (setting [6]) it was less than 80%; in assay [2] (setting [7]), less than 0%. Besides, the pest or weed control at 25 ppm in assay [3] (setting [8]) and in assay [3] (setting [9]) was less than 80% in each case.
Regarding `COc1ccnc(C(=S)N[C@@H](C)C(=O)O[C@@H](C)[C@@H](C)C2CCCC2)c1OC(C)=O` [Example 272], the pest or weed control at 121.5 g/ha in assay [1] (setting [4]), in assay [1] (setting [5]), in assay [2] (setting [6]) and in assay [2] (setting [7]) was less than 80% each time. The values for the pest or weed control at 25 ppm in assay [3] (setting [8]) and in assay [3] (setting [9]) were more than 80% and less than 80%, respectively.
With `COc1ccnc(C(=O)N[C@@H](C)C(=O)O[C@H](C)[C@H](C)c2ccccc2C(F)(F)F)c1OC(=O)C(C)C` [Example 239], the pest or weed control at 121.5 g/ha was less than 80% in assay [1] (setting [4]), less than 80% in assay [1] (setting [5]), less than 0% in assay [2] (setting [6]) and less than 0% in assay [2] (setting [7]). For the same compound, the pest or weed control at 25 ppm in assay [3] (setting [8]) and in assay [3] (setting [9]) was less than 80% throughout.
For the compound `COc1ccnc(C(=O)N[C@@H](C)C(=O)O[C@@H](C)[C@@H](C)c2c(C)cccc2C)c1OC(C)=O` [Example 248], the pest or weed control at 121.5 g/ha in assay [1] (setting [4]) is less than 80%; in assay [1] (setting [5]), more than 80%; in assay [2] (setting [6]) it was more than 80%; in assay [2] (setting [7]), less than 80%. The pest or weed control at 25 ppm in assay [3] (setting [8]) and in assay [3] (setting [9]) was more than 80% throughout.
In the case of `COc1ccnc(C(=O)N[C@@H](C)C(=O)O[C@H](C)[C@H](C)c2c(C)cc(F)cc2C)c1OC(C)=O` [Example 254], the pest or weed control at 121.5 g/ha in assay [1] (setting [4]), in assay [1] (setting [5]), in assay [2] (setting [6]) and in assay [2] (setting [7]) was more than 80% each time. Further, the pest or weed control at 25 ppm in assay [3] (setting [8]) and in assay [3] (setting [9]) was more than 80% throughout.
Take `COc1ccnc(C(=O)N[C@@H](C)C(=O)O[C@@H](C)[C@@H](C)C2CCCC2)c1OC(C)=O` [Example 247]: the pest or weed control at 121.5 g/ha in assay [1] (setting [4]), in assay [1] (setting [5]), in assay [2] (setting [6]) and in assay [2] (setting [7]) was less than 80% each time. Besides, the pest or weed control at 25 ppm in assay [3] (setting [8]) was more than 80%; in assay [3] (setting [9]), less than 80%.
As for `COc1ccccc1[C@H](C)[C@H](C)OC(=O)[C@H](C)NC(=O)c1nccc(OC)c1OC(C)=O` [Example 257], the pest or weed control at 121.5 g/ha in assay [1] (setting [4]), in assay [1] (setting [5]), in assay [2] (setting [6]) and in assay [2] (setting [7]) was less than 80% each time. Besides, the values for the pest or weed control at 25 ppm in assay [3] (setting [8]) and in assay [3] (setting [9]) were less than 80% and less than 0%, respectively.
With `COc1ccnc(C(=O)N[C@@H](C)C(=O)O[C@@H](C)[C@@H](C)c2ccc(F)cc2C(F)(F)F)c1O` [Example 159], the pest or weed control at 100 ppm in assay [1] (setting [4]), in assay [1] (setting [5]), in assay [2] (setting [6]) and in assay [2] (setting [7]) was more than 80% throughout. Also, in assay [3] (setting [9]), the pest or weed control at 25 ppm was more than 80%.
In the case of `COc1ccnc(C(=O)N[C@@H](C)C(=O)OC(C)C(C)c2c(C)cccc2C)c1OC(=O)C(C)C` (stereo partly shown) [Example 243], the pest or weed control at 121.5 g/ha in assay [1] (setting [4]), in assay [1] (setting [5]), in assay [2] (setting [6]) and in assay [2] (setting [7]) was less than 80% each time. In addition, the pest or weed control at 25 ppm in assay [3] (setting [8]) and in assay [3] (setting [9]) was more than 80% in each case.
With `COc1ccnc(C(=O)N[C@@H](C)C(=O)O[C@@H](C)[C@@H](C)c2ccc(C)cc2C)c1OC(C)=O` [Example 177], the pest or weed control at 121.5 g/ha in assay [1] (setting [4]), in assay [1] (setting [5]), in assay [2] (setting [6]) and in assay [2] (setting [7]) was more than 80% each time. The pest or weed control at 25 ppm in assay [3] (setting [8]) and in assay [3] (setting [9]) was more than 80% in each case.
As to `COc1ccnc(C(=O)N[C@@H](C)C(=O)O[C@H](C)[C@H](C)c2ccc(C)cc2C)c1OC(=O)C(C)C` [Example 180], the pest or weed control at 121.5 g/ha in assay [1] (setting [4]), in assay [1] (setting [5]), in assay [2] (setting [6]) and in assay [2] (setting [7]) was less than 80% in each case. Moreover, the pest or weed control at 25 ppm is more than 80% in assay [3] (setting [8]) and less than 80% in assay [3] (setting [9]).
As to `COc1ccnc(C(=O)N[C@@H](C)C(=O)O[C@@H](C)[C@@H](C)c2ccccc2C(F)(F)F)c1OC(=O)C(C)C` [Example 234], the pest or weed control at 121.5 g/ha in assay [1] (setting [4]), in assay [1] (setting [5]), in assay [2] (setting [6]) and in assay [2] (setting [7]) was less than 80% throughout. In addition, the pest or weed control at 25 ppm in assay [3] (setting [8]) and in assay [3] (setting [9]) was more than 80% in each case.
For the compound `COc1ccnc(C(=O)N[C@@H](C)C(=O)O[C@H](C)[C@H](C)c2ccc(F)cc2)c1OC(C)=O` [Example 182], the pest or weed control at 25 ppm in assay [3] (setting [8]) and in assay [3] (setting [9]) was less than 80% throughout.
